According to US6833377B2, “Composition and method for potentiating drugs” (priority 2001, dated 2004):
Values joined by “and” are separate entries in the source; they are usually repeats but may differ in a detail not shown here. Equal values may be shown once. Read-outs that look alike come from different tables or passages of the source.

Tests used:
MK-toxicity = MK-toxicity (behavioral toxicity caused by MK-801); assay type: in vivo, rats; settings: haloperidol alone, at this dose only ataxia eliminated, MK-toxicity only partially eliminated
Description: (§1) Antipsychotic effect of neuroleptics was studied using the model of behavioral toxicity “MK-toxicity” caused by a blocker of NMDA receptors MK-801 (Lapin T. P., Rogawski M. A. Behav. Brain Res. (1995) 70(2):145-151) and a model of phenaminic stereotypy caused by phenamine (Kuczenski R., Schmidt D, Leith N. Brain Res. (1977), 126(1):117-129).
(§2) The minimal effective dose of the neuroleptic haloperidol necessary to completely prevent the development of “MK-toxicity” (MK-801 at a dose of 0.4 mg/kg IM) and phenaminic stereotypy (phenamine at a dose of 10 mg/kg IM) in 80% of the rats was calculated. To estimate the potentiation of the antipsychotic effect of haloperidol, the minimal effective dose of haloperidol in compositions, which completely prevents the development of MK-toxicity and phenaminic stereotypy in rats, was determined.

phenaminic stereotypy [1] = assay: Phenaminic stereotypy (antipsychotic effect of haloperidol); assay type: in vivo, rats; settings: haloperidol alone, phenamine 10 mg/kg IM
Description: as §1, §2

low-active rats = assay: Porsolt's test, low-active rats; assay type: in vivo; settings: drug alone
Description: (§3) Antidepressive effects was studied by Porsolt's test [Porsolt R. D., Anton G., Blavet N., Jalfre M. Eur. J. Pharmacol.(1978), 47(4):379-91]. For each rat under study, the total immobilization time was determined during 10 min of forced swimming in a glass vessel at a water temperature of 22° C. The animals were subdivided into three groups according to their immobilization time: highly-, medium- and low-active (immobilization time below 80 sec. 100-140 sec and above 150 sec, respectively).
(§4) I. N., Kryzhanovskii G. N. Biull. Eksp. Biol. Med. (1995) 120(8): 160-3] 30 min before testing at a dose of 15 mg/kg. […] (60 min before a repeated examination in Porsolt's test), and also to low-active rats 30 min. before a repeated study in Porsolt's test.
(§5) To determine the degree of potentiation of the effect of antidepressants, their minimal effective dose within the compositions, which caused a maximal antidepressive effect (immobilization time—below 80 s) in low-active rats and in rats with MPTP-depression was determined.

[2] = tested on: rats with MPTP-depression; assay: Porsolt's test, rats with MPTP depression (MPTP 15 mg/kg IM); assay type: in vivo; settings: drug alone
Description: as §3, §4, §5

[3] = tested on: behavioral depression caused by a toxic dose of MPTP; assay: Forced swimming test after a toxic dose of MPTP (30 mg/kg IM); assay type: in vivo, rats
Description: In a forced swimming test, the ability of amitriptyline and its compositions to eliminate the effect of toxic doses of MPTP was studied. Single administration of high MPTP doses (30 mg/kg) causes acute suppression of motor activity (akinesis), catalepsy, and muscular rigidity. Antidepressants reduce behavioral depression caused by a single administration of toxic doses of MPTP. The behavioral depression was studied in a forced swimming test of a group of active rats after the administration of a toxic dose of MPTP (30 mg/kg IM). Swimming duration (maximal swimming duration—10 min) and the time of forced immobilization during the first 5 min of swimming (under the condition that swimming duration exceeds 5 min) was estimated in the forced swimming test 30 min after MPTP administration. Drugs were administered IM or IG 30 min before MPTP administration.
To estimate the potentiation of the effects of amitriptyline (its ability to reduce toxic effects of MPTP), the minimal effective dose of amitriptyline in the composition, which increased swimming time up to 9-10 min and reduced immobilization time during the first 5 min of swimming down to 20-30 sec was determined.

reflex of tail flicking = assay: Tail-flick test (analgesic effect); assay type: in vivo, rats; settings: drug alone
Description: (§6) For these studies, solutions of the composition of the invention were used, which. were prepared using distilled water immediately before administration. The solutions were administered either orally (IG), by a rigid metal probe into the cardiac section of the stomach at a total amount of 0.8 ml, or intramuscularly (IM) at an amount of 0.2 ml, 30 min before testing.
The analgesic effect of the components was estimated by an extension of the latent period of the reflex of tail flicking in the “tail-flick” test [Woolf C. J., Barret G. D., Mitchel D., Myers R. A. (1977) Eur. J. Pharmacol. 45(3);311-314] and of the reflex of hind leg flicking in the hyperalgesia test [Coderre T. J., Melzack R. Brain Res. (1987) 404(1-2):95-106].
For the “tail-flick” test, hyperalgesic rats were selected (latent period of tail flicking on placing into water with a temperature of 51° C. was 3-4 sec).

[4] = tested on: pentylenetetrazole seizures; settings: diazepam alone, pentylenetetrazole 70 mg/kg
Description: as §6
Anticonvulsive effects of drugs and their compositions was studied on the model of pentetrazole seizures [Parsons C. G . Quack G., Bresink I., Baran L., Przegalinski F., Kostowski. W., Krzascik P., Hartmann. S., Danysz W. Neuropharmacology (1995) 34(10):1239-1258).
To estimate the potentiation of diazepam effect, its minimal effective dose in the composition preventing clonico-tonic and clonic seizures in 80% of rats was determined.

[5] = tested on: catalepsy caused by haloperidol; assay: Haloperidol catalepsy (inclined grid); assay type: in vivo, rats; settings: for Minimal effective dose of memantine eliminating catalepsy (immobilization time on an inclined grid below 40 seconds), haloperidol 1 mg/kg / Minimal effective dose of memantine eliminating catalepsy (immobilization time on an inclined grid below 40 seconds), haloperidol 3 mg/kg: memantine alone; for Minimal effective dose of memantine eliminating catalepsy (immobilization time on an inclined grid below 40 seconds), haloperidol 3 mg/kg: catalepsy only partially eliminated at this dose (immobilization time 60-70 seconds)
Description: Haloperidol catalepsy is a test for selecting anti-parkinson agents [Campbell A., Baldessarini R. J. Cremens M. C. Neuropharmacology (1988), 27(11):1197-9; Ossowska K. J. Neural. Transm. Park. Dis. Dement. Sect. (1994) 8(1-2):39-71]. Catalepsy degree was estimated by the immobilization time (in sec) of a rat placed on a coarse-mesh grid at an angle of 45° during a 3-minute exposition [Campbell A., Baldessarini R. J., Cremens M. C. Neuropharmacology (1988) 27(11):1197-9 ] 30, 60, 90 and 120 minutes after haloperidol administration. Maximal catalepsy was attained in 40-60 minutes after haloperidol administration (immobilization time on the grid was 140-180 sec) and lasted from 2 to 6 hours depending on the dose of haloperidol (1 or 3 mg/kg). The minimal effective dose of the anti-parkinson agent memantine causing a maximal anticataleptic effect (immobilization time on an inclined grid less than 40 sec) 1 hour after haloperidol administration at a dose of 1 and 3 mg/kg was calculated.
To estimate the potentiation effect of memantine, the minimal effective dose of memantine in the composition causing a maximal anticataleptic effect was determined.

phenaminic stereotypy [6] = assay: Potentiation of phenaminic stereotypy (psychostimulant effect of phenamine); assay type: in vivo, rats; settings: phenamine + distilled water
Description: The potentiation of the effect of psychostimulants was studied using the model of phenaminic stereotypy [Kuczenski R., Schmidt D., Leith N. Brain Res. (1977), 126(1):117-29]. Phenamine at a dose of 10 mg/kg IM, or 20 mg/kg IG, causes a marked behavioral stereotypy. To estimate the potentiation effect of phenamine, a phenamine dose in the IM or IG introduced composition was determined, which causes the same stereotypy as phenamine alone at a dose of 10 mg/kg, IM or 20 mg/kg, IG.

[7] = IG, amitriptyline 30 mg/kg, alone or with phenylephrine 0.004 mg/kg
[8] = IM, amitriptyline 30 mg/kg, alone or with phenylephrine 0.002 mg/kg (text b94: 0.003)

In the case of O=C(CCCN1CCC(O)(c2ccc(Cl)cc2)CC1)c1ccc(F)cc1 [Haloperidol, haloperidol], the “Minimal effective dose of haloperidol completely preventing MK-toxicity (MK-801 0.4 mg/kg IM)” value (shortened to “Minimal effective dose … (MK-801 0.4 mg/kg IM)”) (MK-toxicity; IG) is reported as over 1 mg/kg, the “Minimal effective dose … (MK-801 0.4 mg/kg IM)” value (MK-toxicity; IG, listed as haloperidol) is reported as over 1 mg/kg and the “Minimal effective dose … (MK-801 0.4 mg/kg IM)” value (MK-toxicity; IM) is reported as over 1 mg/kg. The “Minimal effective dose … (MK-801 0.4 mg/kg IM)” value (MK-toxicity; IM, listed as haloperidol) was over 1 mg/kg, the “Minimal effective dose of haloperidol completely preventing phenaminic stereotypy in 80% of rats” value (from here on “Minimal effective dose … in 80% of rats”) (phenaminic stereotypy [1]; IG) was 0.18 ± 0.022 mg/kg and the “Minimal effective dose … in 80% of rats” value (phenaminic stereotypy [1]; IG, listed as haloperidol) was 0.18 mg/kg. For the same compound, the “Minimal effective dose … in 80% of rats” value (phenaminic stereotypy [1]; IM) was 0.15 ± 0.017 mg/kg and the “Minimal effective dose … in 80% of rats” value (phenaminic stereotypy [1]; IM, listed as haloperidol) was 0.15 mg/kg.
CNCCC(Oc1ccc(C(F)(F)F)cc1)c1ccccc1 (centres unmarked) [Fluoxetine] was tested, and the “Minimal effective dose of the antidepressant causing a maximal antidepressive effect (immobilization time below 80 sec), low-active rats” value (“Minimal effective dose … low-active rats” below) (low-active rats; IG) was 5.5 mg/kg and 5.5 ± 0.7 mg/kg, the “Minimal effective dose … low-active rats” value (low-active rats; IM) was 10.6 mg/kg and 10.6 ± 1.2 mg/kg and the “Minimal effective dose of the antidepressant causing a maximal antidepressive effect (immobilization time below 80 sec), highly active rats with MPTP depression” value (“Minimal effective dose … with MPTP depression” for short) ([2]; IM) was 16.2 mg/kg and 16 ± 2.1 mg/kg.
With CN(C)CCC=C1c2ccccc2CCc2ccccc21 [Amitriptyline, amitriptyline] the “Minimal effective dose … low-active rats” value (low-active rats; IG) was 2.0 ± 0.24 mg/kg, the “Minimal effective dose … low-active rats” value (low-active rats; IG, listed as amitriptyline) was 2 mg/kg and the “Minimal effective dose … low-active rats” value (low-active rats; IM) was 5.2 ± 0.6 mg/kg. The “Minimal effective dose … low-active rats” value (low-active rats; IM, listed as amitriptyline) was 5.0 mg/kg, the “Minimal effective dose … with MPTP depression” value ([2]; IG) was 2.5 ± 0.5 mg/kg and the “Minimal effective dose … with MPTP depression” value ([2]; IG, listed as amitriptyline) was 2.5 mg/kg. For the same compound, the “Minimal effective dose … with MPTP depression” value ([2]; IM) was 7.0 ± 0.8 mg/kg, the “Minimal effective dose … with MPTP depression” value ([2]; IM, listed as amitriptyline) was 7.2 mg/kg and the “Duration of forced swimming until drowning 30 min after MPTP 30 mg/kg (maximal recorded time 600 seconds)” value (“Duration” below) [3, 7] was 340 s and 340 ± 37 s. For the same compound, the “Immobilization time during the first 5 minutes of forced swimming, 30 min after MPTP 30 mg/kg” value [3, 7] was 78 s and 78 ± 8.5 s, the “Duration” value ([3]; IM, amitriptyline 20 mg/kg) was 220 ± 25 s and the “Duration” value [3, 8] was 410 s and 410 ± 46 s. For the same compound, the “Immobilization time during the first 5 minutes of forced swimming, 30 min after MPTP 30 mg/kg” value [3, 8] was 61 s and 61 ± 6.3 s.
In the case of Cc1c(N(C)CS(=O)(=O)[O-])c(=O)n(-c2ccccc2)n1C.[Na+] [Dipyrone], the “Minimal effective dose of the analgesic causing maximal analgesia in tail-flick test (latent period of tail flicking reflex more than 30 sec)” value (reflex of tail flicking; IG) is reported as 20 mg/kg and 20 ± 2.3 mg/kg.
For CN1CC[C@]23c4c5ccc(O)c4O[C@H]2[C@@H](O)C=C[C@H]3[C@H]1C5 [Morphine, morphine], the “Minimal effective dose of the analgesic causing maximal analgesia in tail-flick test (latent period of tail flicking reflex more than 30 sec)” value (reflex of tail flicking; IG) was 3 ± 0.35 mg/kg, the “Minimal effective dose of the analgesic causing maximal analgesia in tail-flick test (latent period of tail flicking reflex more than 30 sec)” value (reflex of tail flicking; IG, listed as morphine) was 3 mg/kg and the “Minimal effective dose of the analgesic causing maximal analgesia in tail-flick test (latent period of tail flicking reflex more than 30 sec)” value (reflex of tail flicking; IM) was 3.0 ± 0.37 mg/kg. For the same compound, the “Minimal effective dose of the analgesic causing maximal analgesia in tail-flick test (latent period of tail flicking reflex more than 30 sec)” value (reflex of tail flicking; IM, listed as morphine) was 3 mg/kg.
In the case of CN1C(=O)CN=C(c2ccccc2)c2cc(Cl)ccc21 [Diazepam], the “Minimal dose of diazepam preventing clonico-tonic pentylenetetrazol seizures in 80% of rats” value ([4]; IG) is reported as 2.5 mg/kg and 2.5 ± 0.3 mg/kg and the “Minimal dose of diazepam preventing clonico-tonic pentylenetetrazol seizures in 80% of rats” value ([4]; IM) is reported as 6.7 mg/kg and 6.7 ± 0.7 mg/kg.
For CC12CC3CC(C)(C1)CC(N)(C3)C2 [Memantine, memantine], the “Minimal effective dose of memantine eliminating catalepsy (immobilization time on an inclined grid below 40 seconds), haloperidol 1 mg/kg” value (from here on “Minimal effective dose … haloperidol 1 mg/kg”) ([5]; IG) was 11.5 mg/kg and 11.5 ± 1.2 mg/kg, the “Minimal effective dose of memantine eliminating catalepsy (immobilization time on an inclined grid below 40 seconds), haloperidol 3 mg/kg” value (shortened to “Minimal effective dose … haloperidol 3 mg/kg”) ([5]; IG) was over 16.0 mg/kg and the “Minimal effective dose … haloperidol 3 mg/kg” value ([5]; IG, listed as memantine) was over 16 mg/kg. The “Minimal effective dose … haloperidol 1 mg/kg” value ([5]; IM) was 7.5 ± 0.7 mg/kg, the “Minimal effective dose … haloperidol 3 mg/kg” value ([5]; IM) was over 15.0 mg/kg and the “Minimal effective dose … haloperidol 3 mg/kg” value ([5]; IM, listed as memantine) was over 15 mg/kg. The “Minimal effective dose … haloperidol 1 mg/kg” value ([5]; IM, listed as memantine) was 7.5 mg/kg, the “Immobilization time of rats on an inclined grid, catalepsy caused by haloperidol 3 mg/kg” value ([5]; memantine 15 mg/kg IM) was 60 to 70 s and the “Immobilization time of rats on an inclined grid, catalepsy caused by haloperidol 3 mg/kg” value ([5]; memantine 16 mg/kg IG) was 60 to 70 s.
For CC(N)Cc1ccccc1 (centres unmarked) [Phenamine, phenamine], the “Dose of phenamine causing the same behavioral stereotypy as phenamine 10 mg/kg IM” value (from here on “Dose … as phenamine 10 mg/kg IM”) (phenaminic stereotypy [6]; IG) was 20.2 ± 2.3 mg/kg, the “Dose … as phenamine 10 mg/kg IM” value (phenaminic stereotypy [6]; IG, listed as phenamine) was 20 mg/kg and the “Dose … as phenamine 10 mg/kg IM” value (phenaminic stereotypy [6]; IM) was 10.0 ± 1.1 mg/kg. For the same compound, the “Dose … as phenamine 10 mg/kg IM” value (phenaminic stereotypy [6]; IM, listed as phenamine) was 10 mg/kg.
